PubChem BioAssay (NCI)
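Dose response: 5 concentrations. Exposure: 48 h. Format: 96-well plates. Endpoint: linear interpolation; highest concentration if not reached. TGI is the concentration that stops growth completely.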

Assays:
Assay in all cases: DTP human tumour cell line panel, 48 h
SNB-19 CNS = tested on: SNB-19 CNS
OVCAR-3 ovarian = tested on: OVCAR-3 ovarian
CAKI-1 renal = tested on: CAKI-1 renal
UACC-257 melanoma = tested on: UACC-257 melanoma
MALME-3M melanoma = tested on: MALME-3M melanoma
SW-620 colon = tested on: SW-620 colon
UO-31 renal = tested on: UO-31 renal
NCI-H522 lung = tested on: NCI-H522 lung
RPMI-8226 leukemia = tested on: RPMI-8226 leukemia
BT-549 breast = tested on: BT-549 breast

| Structure (SMILES) | TGI (SNB-19 CNS) [µM] | TGI (OVCAR-3 ovarian) [µM] | TGI (CAKI-1 renal) [µM] | TGI (UACC-257 melanoma) [µM] | TGI (MALME-3M melanoma) [µM] | TGI (SW-620 colon) [µM] | TGI (UO-31 renal) [µM] | TGI (NCI-H522 lung) [µM] | TGI (RPMI-8226 leukemia) [µM] | TGI (BT-549 breast) [µM] |
| --- | --- | --- | --- | --- | --- | --- | --- | --- | --- | --- |
| CC(C)c1cccc(C(C)C)c1NC(=O)C(=O)Cc1nc2ccc([N+](=O)[O-])cc2[nH]c1=O | > 100 | > 100 | > 100 | > 100 | > 100 | > 100 | > 100 | 54.4 |  |  |
| COc1ccc(-n2c(CCC(=O)O)nc3c2C(=O)c2ccccc2C3=O)cc1 | > 100 | > 100 | > 100 | > 100 |  | > 100 | > 100 | > 100 | > 100 | > 100 |
| CC1(C)C2CCC3CC(CCC#N)CCC3C21C#N (centres undefined) | > 100 | > 100 | > 100 | > 100 | > 100 | > 100 | > 100 | > 100 | > 100 |  |
| CCOC1=C2N=C(C(CC)c3ccccc3F)N=C2C(=O)c2ccccc21 (centres undefined) | > 100 | > 100 | > 100 | > 100 | > 100 | > 100 | > 100 | > 100 | > 100 |  |
| CC(C)Oc1c(C2(c3ccccc3)SCCCS2)c(=O)c1=O | > 100 | > 100 | > 100 | > 100 |  | > 100 | > 100 | 97.3 |  | > 100 |
| CC1=C(c2nc3ccccc3s2)C(=O)OC1(C)C | > 100 | > 100 | > 100 | > 100 | > 100 | > 100 | > 100 | > 100 | > 100 |  |
| COc1ccc(N2C(=O)c3c(c4[nH]c5ccccc5c4c4ccc(C(C)(C)C)cc34)C2=O)cc1 | > 100 | 53.6 | > 100 | > 100 | > 100 | > 100 | > 100 | > 100 |  |  |
| CCOC(=O)N/N=C(/N)c1cccc(Br)c1 | > 100 | > 100 | > 100 | > 100 | > 100 |  | > 100 | > 100 |  | > 100 |
| Cc1ccc(S(=O)c2cccs2)cc1 (centres undefined) | > 100 | > 100 |  | > 100 | > 100 | > 100 | > 100 |  | > 100 | > 100 |
| CCOC(=O)c1c2ccc(/C=C/c3ccccn3)ccc-2c(C(=O)OCC)c1N | > 100 | > 100 | > 100 | > 100 | > 100 | > 100 | > 100 | > 100 |  |  |
| C=CCCC1(O)C(O)C(CO)O[C@H](O[C@@]2(CO)OC(CO)C(O)C2O)C1O (some centres undefined) | > 100 |  | > 100 | > 100 | > 100 | > 100 |  | > 100 | > 100 | > 100 |
| CC(C)(C)OC(=O)NC1CCCC1C(=O)C1=CCCC1 (centres undefined) | > 100 | > 100 |  | > 100 |  | > 100 |  |  | > 100 | > 100 |
| C#CC[C@@H]1C(=O)N(Cc2ccc(OC)cc2)[C@@H](C(C)C)C(=O)N1Cc1ccc(OC)cc1 | > 100 | > 100 | > 100 | > 100 | > 100 | > 100 | > 100 | 99.5 |  | 93.7 |
| CCS(=O)C(=O)N(O)c1ccc(Cl)cc1 (centres undefined) | > 100 | > 100 | 38.5 | 75.8 |  | 46 | 46.7 |  | 20.4 |  |
| CC(=O)OI1NC(=O)c2ccccc21 | > 100 | > 100 |  |  | > 100 | > 100 | > 100 | > 100 | > 100 |  |
| COc1ccc2[nH]c3c(c2c1)[C@H](c1ccccc1)C[C@@H]1C(=O)N(c2ccccc2)C(=O)[C@H]31 | > 100 | 45.6 | 71.7 | > 100 | > 100 | 49.7 | 52.3 | > 100 |  |  |
| CN(C)CCN(C)P12(Oc3ccccc3O1)Oc1c(Cl)c(Cl)c(Cl)c(Cl)c1O2 | > 100 | > 100 |  | 85.5 | > 100 | > 100 | > 100 |  | > 100 | > 100 |
| COC(=O)c1ccc2c(c1)CC1(C2)Cc2cc3c(cc2C1)CCC3 | > 100 | > 100 | > 100 | > 100 | > 100 | > 100 | > 100 | > 100 | > 100 |  |
| N#CC(NNC(=O)Cc1ccccc1)c1cccc(O)c1 (centres undefined) |  |  | > 100 | > 100 | > 100 | > 100 | > 100 | > 100 | > 100 |  |
| O[C@]12C=C(c3nccc4c3[nH]c3ccccc34)[C@@H]3CCN(CCCC/C=C\CC1)C[C@@]31CC3/C=C\CCCCN3[C@H]12 (some centres undefined) | 16.2 | 1.55 | 6.17 | 3.39 | 1.71 | 4.65 | 0.463 | 2.21 |  | 10.4 |
| Nc1nc(NNc2cccc(F)c2)cc(=O)[nH]1 | > 100 | 51.5 |  | > 100 | > 100 | > 100 | > 100 |  | > 100 | > 100 |
| CC1(C)OP(=O)(c2ccccc2)C=C1Sc1ccc([N+](=O)[O-])cc1[N+](=O)[O-] (centres undefined) | > 100 | > 100 | > 100 | > 100 | > 100 | > 100 |  | 36.6 |  |  |
| Cc1cc2ncn(-c3nc4ccccc4nc3C(C#N)S(C)(=O)=O)c2cc1C (centres undefined) | > 100 | > 100 | > 100 | > 100 | > 100 | > 100 | > 100 | > 100 | > 100 |  |
| CSc1ncnc2c1cnn2Cc1cnnn1COCC(O)CO (centres undefined) | > 100 | > 100 | > 100 | > 100 |  | > 100 | > 100 | 29 | > 100 | > 100 |
| C1CNOCCCONCCCNOCCCONC1 | > 100 | > 100 | > 100 | > 100 | 99.2 | > 100 | > 100 | > 100 |  | > 100 |
